According to patent publication US20060166996A1, “Phthalazine derivatives as phosphodiesterase 4 inhibitors” (Zambon Group S.P.A., priority 2002, published 2006):
In brackets after ≈: the same amount, converted by molar mass. Where two headings read alike, the source gives them in different places.

Experiments:
TNFα release = TNFα release in whole human blood (LPS, ELISA); assay type: cell-based
Method: The blood samples obtained from healthy volunteers were collected in heparinised tubes and diluted 1:5 with RPMI 1640 without serum addition.
The test was carried out in 96-well plates and samples containing 150 μl of diluted blood and 150 μl of RPMI 1640 with control vehicle or with different concentration of the compounds of the present invention were incubated at 37° C. in a 5% CO2 humidified atmosphere for 30 minutes.
The whole blood in the assay samples was diluted 1:10 (v/v).
The samples were stimulated with LPS (lipopolysaccharide from E. Coli: serotype B 0:55, Sigma) 0.25 μg/ml and incubated for 24 hours.
After centrifugation, the supernatants were collected for TNFα levels determination by a commercially available ELISA kit (Biosource).
The test objects were dissolved in DMSO at 10^−2 M and further diluted in RPMI 1640. […] Each compound was tested in duplicate at nine concentrations and the data obtained were further confirmed using blood samples from different donors.
The percent inhibition of TNFα production at each concentration was calculated and IC50 was determined using a 4-parameters logistic equation (Origin calculation program, Microcal Software Inc.)

PDE 3 = PDE 3 (Homo sapiens, UniProt Q14432); experiment: PDE 3 enzyme inhibition (SPA); assay type: biochemical, healthy volunteers; settings: PDE 3 from platelet rich plasma; 3H-cAMP; read-out: PDE 3-5 IC 50 (nM): PDE 3
Method: (§1) PDE 3 and PDE 5 enzymes were purified from platelet rich plasma (PRP) obtained from healthy volunteers.
(§2) PDE 3 and PDE 5 enzymes were purified according to Simpson A. W. M. et al. (Biochem. Pharmacol. 1988, 37, 2315-2320) partially modified for the FPLC technique (Fast Protein Liquid Chromatography).
(§3) The PRP was diluted 1:2 in saline solution and centrifuged at 2000×g for 15 minutes at room temperature.
(§4) The pellet was suspended in 10 ml of lysis solution (155 mM NH4Cl, 10 mM KHCO3 and 0.1 mM Na2EDTA pH 7.4) and incubated for 10 minutes on ice-bath to remove erythrocyte contamination.
(§5) After centrifugation, platelets were suspended in 10 ml of 20 mM Bis-Tris, 2 mM EDTA, 5 mM β-mercaptoethanol, 50 mM sodium acetate, 2 mM benzamidine) and homogenised with a Polytron homogeniser on ice-bath.
(§6) The homogenate was centrifuged and the supernatant applied to a UNO Q12 column connected to a Biologic Chromatography system (FPLC, BIO RAD).
(§7) PDE 3 and PDE 5 enzymes were eluted with a linear 0.05-1M sodium acetate gradient and the elution fractions were collected for PDE enzymes activity assay.
(§8) Fractions containing PDE activities were pooled, dialysed overnight against distilled water and concentrated 10 times by an Amicon filtration system (using YM10 membrane filter). Ethylene glycol was added to a final concentration of 30% v/v and the solution stored at −20° C.
(§9) Enzymatic activity was stable for several weeks under these conditions.
(§10) Enzymes activity assay were performed using Scintillation Proximity Assay (SPA) Amersham kit consisting of tracer ^3H-cAMP for PDE3 or ^3H-cGMP for PDE5, PDE assay buffer (10×solution: 500 mM TRIS/HCl pH 7.5, 83 mM MgCl2 and 17 mM EGTA) and Yttrium SPA PDE beads (containing 18 mM zinc sulphate).
(§11) The radioactivity of the beads was measured using a scintillation counter (Packard model MINAXI β TRI-CARB 4000 SERIES).

PDE 5 = PDE 5 (Homo sapiens, UniProt O76074); experiment: PDE 5 enzyme inhibition (SPA); assay type: biochemical, healthy volunteers; settings: PDE 5 from platelet rich plasma; 3H-cGMP; read-out: PDE 3-5 IC 50 (nM): PDE 5
Method: as §1, §2, §3, §4, §5, §6, §7, §8, §9, §10, §11

PDE 1 = target: T1, PDE 1 (Bos taurus, UniProt P14100); experiment: PDE 1 enzyme inhibition (SPA); assay type: biochemical; settings: PDE 1 from bovine heart (Sigma P0520); read-out: PDE 1 IC 50
T1 construct: partially purified from bovine heart; purchased Sigma P0520; host or cells: bovine heart
Method: Lyophilised PDE 1 enzyme, partially purified from bovine heart, was purchased from Sigma (P0520).
The enzyme consists of the PI fraction reported by Ho et al. (Biochim Biophys Acta, 1976, vol. 429(2), 461-473).
The lyophilised enzyme was reconstituted with 30% v/v ethylene glycol at a concentration of 500 µg/ml and stored at −20° C.
PDE 1 activity was determined using the Scintillation Proximity Assay (SPA) Amersham kit consisting of tracer ^3H-cAMP, PDE assay buffer (10×solution: 500 mM TRIS/HCl pH 7.5, 83 mM MgCl2 and 17 mM EGTA) and Yttrium SPA PDE beads (containing 18 mM zinc sulphate).
as §11

[1] = Solubility test by HPLC in PBS pH 7.4; assay type: physicochemical; settings: PBS pH 7.4, HPLC against standard, compounds of formula I; for solubility kinetic: PBS (phosphate buffer saline), aqueous buffer, kinetic from dmso stock
Method: HPLC method used to test the solubility.
Solubility test was performed by HPLC analysis (column 4.6×15 mm) water/0.1% TFA —CH3CN/0.06% TFA gradient) against standard.
A […] solution of the substance dissolved in DMSO was prepared.
In order to prepare the sample 190 μl of PBS (Phosphate Buffer Saline, pH 7.4) were added to 10 μl of the above solution; instead (while) in order to prepare the standard 190 μl of DMSO to other 10 μl of solution were added.

[2] = Pharmacokinetic study in rats; assay type: in vivo; settings: for PK rat t/2: 10 mg/kg oral or 3 mg/kg intravenously, mixture of 3-5 compounds; for bioavailability: plasma, rat, oral 10 mg/kg in N-methylglucosamine/PG/Tween 80 (physiologic vehicle), read-out: PK rat % F
Method: A mixture containing 3-5 compounds according to what described by Ward K. W. et al. (Drug Metab. Dispos. 2001, vol. 29, 82-88) was administered to rats at 10 mg/kg dosage by oral route (1 mg/ml in 77% N-methylglucosamine 25 mM and 20% PG containing 3% Tween 80) or 3 mg/kg intravenously (3 mg/ml in 15% DMSO/85% PEG).
The animals received only one treatment per study.
The rats permanently implanted with jugular catheter (Silastic®, Dow Corning) were treated with the test mixture by an intravenous bolus (via implanted catheter) or by oral gavage. Blood samples were collected from the jugular catheter at different times up to 6 h after administration.
Plasma samples were analyzed after protein precipitation by two volumes of CH3CN and plasma concentrations were determined by liquid chromatography/mass spectrometry.
Being poor the solubility of the compounds comprised in the general formula of the international patent application WO 00/05218, it was necessary to performe the pharmacokinetic studies using a 15% DMSO/85% PEG solution of the compounds both for intravenous and for oral route, i.e. by an absolutely non physiological vehicle.

[3] = h-WB (whole human blood), LPS stimulated, read-out: IC 50 (nM) h-WB
[4] = whole human blood diluted 1:10, LPS 0.25 μg/ml, 24 hours, read-out: IC 50 (nM) h-WB 1:10

T1 sequence (P14100 1-514 isoform P14100-2): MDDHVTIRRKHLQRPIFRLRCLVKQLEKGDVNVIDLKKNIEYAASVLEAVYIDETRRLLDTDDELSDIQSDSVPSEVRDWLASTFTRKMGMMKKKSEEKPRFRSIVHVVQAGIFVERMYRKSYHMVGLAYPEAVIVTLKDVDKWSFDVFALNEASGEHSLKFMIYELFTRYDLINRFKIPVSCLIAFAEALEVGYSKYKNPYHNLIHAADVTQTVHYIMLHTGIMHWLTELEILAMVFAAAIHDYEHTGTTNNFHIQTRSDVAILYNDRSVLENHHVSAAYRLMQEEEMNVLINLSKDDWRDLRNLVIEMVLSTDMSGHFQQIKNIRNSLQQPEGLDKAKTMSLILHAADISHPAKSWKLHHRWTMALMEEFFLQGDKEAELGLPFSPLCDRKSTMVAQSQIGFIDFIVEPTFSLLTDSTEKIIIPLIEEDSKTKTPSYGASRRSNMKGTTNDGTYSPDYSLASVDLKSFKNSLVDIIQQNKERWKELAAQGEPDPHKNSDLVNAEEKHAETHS
PDE 3, sequence (Q14432 674-1093 limits assumed): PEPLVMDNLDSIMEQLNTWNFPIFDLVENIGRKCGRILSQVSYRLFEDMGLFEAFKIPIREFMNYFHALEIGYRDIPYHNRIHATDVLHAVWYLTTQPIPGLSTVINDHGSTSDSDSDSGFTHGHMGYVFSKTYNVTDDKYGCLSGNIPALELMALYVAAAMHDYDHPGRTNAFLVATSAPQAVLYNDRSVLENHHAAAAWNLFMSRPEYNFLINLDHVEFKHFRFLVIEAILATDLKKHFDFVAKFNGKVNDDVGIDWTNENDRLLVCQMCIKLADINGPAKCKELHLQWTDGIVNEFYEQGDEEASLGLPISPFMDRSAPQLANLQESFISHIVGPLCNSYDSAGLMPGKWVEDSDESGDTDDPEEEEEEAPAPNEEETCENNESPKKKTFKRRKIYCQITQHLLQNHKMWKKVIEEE

IC50 (TNFα release; [3]) [nM] | IC50 (TNFα release; [4]) [nM] | IC50 (PDE 3) [nM] | IC50 (PDE 5) [nM] | IC50 (PDE 1) [µM] | solubility kinetic [1] [µg/mL] | Sol. [1] [µM] | PK rat t/2 [2] [min] | bioavailability [2] [%] | SMILES
33000 | 2470 | > 10000 | > 10000 | > 10 | 216 (≈ 491 µM) | 482.14 | 132 | 43 | COc1ccc2c(Cc3c(Cl)cncc3Cl)nnc(-c3cccc(C(=O)O)c3)c2c1 [Compound 2, 3-[4-(3,5-dichloro-pyridin-4-ylmethyl)-7-methoxy-phthalazin-1-yl]-benzoic Acid]
14300 | 1230 | > 10000 | > 10000 | > 10 | 470 (≈ 987 µM) | 987.39 | 66 | 41 | O=C(O)c1cccc(-c2nnc(Cc3c(Cl)cncc3Cl)c3ccc(OC(F)F)cc23)c1 [Compound 8, 3-[4-(3,5-dichloro-pyridin-4-ylmethyl)-7-difluoromethoxy-phthalazin-1-yl]-benzoic Acid]
– | 18000 | > 10000 | > 10000 | > 10 | 253 (≈ 567 µM) | 567.26 | 21 | 7 | COc1ccc2c(Cc3c(Cl)cncc3Cl)nnc(-c3sccc3C(=O)O)c2c1 [Compound 10, 2-[4-(3,5-dichloro-pyridin-4-ylmethyl)-7-methoxy-phthalazin-1-yl]-thiophene-3-carboxylic Acid]
